How the values were obtained:
60 tumor cell lines = test: NCI DTP Human Tumor Cell Line Screen (60 tumor cell lines, Sulforhodamine B assay); assay type: cell-based; settings: 48 h exposure, five 10-fold dilutions
From the text: This example describes the in vitro screening of 60 tumor cell lines against the compounds of the invention: ptilomycalin A, isocrambescidin 800 trihydrochloride, triacetylcrambescidin 800 chloride, crambescidin 657 hydrochloride, crambescidin 800 trihydrochloride, triacetylisocrambescidin 800 chloride, and 13-epiptilomycalin A to determine anti-tumor activity.
The screening methods utilized the National Cancer Institute (NCI) DTP Human Tumor Cell Line Screen protocol as described by Monks et al., J. Nat'l. Cancer Inst. 83:757-766 (1991); and Boyd In “Cancer Drug Discovery and Development, Vol; 2; Drug Development; Preclinical Screening, Clinical Trial and Approval, Humana Press, 1997, pp 23-43. The origins and processing of the cell lines used are described in Alley et al., Cancer Res., 1988, 48:589-601; Shoemaker et al., Prog. Clin. Biol. Res., 1988, 276:265-286; and Stinson et al., Proc. Am. Assoc. Cancer Res., 1989, 30:613.
In brief, in the screen protocol, cell suspensions were diluted depending on cell type and the expected target cell density (approximately 5000-40,000 cells per well) into a 96 well microtiter plate. Inoculates were preincubated for 24h at 37 °C for stabilization. Dilutions at twice the intended test concentrations were added at time zero in 100 μL aliquots to the microtiter plate wells. Test compounds were evaluated at five 10-fold dilutions. Routine test concentrations have the highest well concentration at 10E-4M, but for the standard agents, the highest well concentration used depended on the agent used. Incubations lasted 48 hours in 5% CO2 atmosphere and 100% humidity. The cells were assayed by Sulforhodomine B assay as described by Rubenstein et al., JNCI, 1990, 82:1113-1118 and Skehan et al., JNCI, 1990, 82: 1107-1112. Optical densities were read with a plate reader and the data processed using a microcomputer into special concentration parameters.
NCI renamed the IC50 value, the concentration that causes 50% growth inhibition the “GI50” value to emphasize the correction for the cell count at time zero; thus GI50 is the concentration of test drug where 100×(T−T0)/(C−T0)=50 (Boyd et al., In Cytotoxic Anticancer Drugs: Models and Concepts for Drug Discovery and Development, Vieriote. et al., Eds., Kluwer Academic, Hingham, Mass., 1992, pp 11-34; and Monks et al., JNCI, 1991, 83, 757-766. The optical density of the test well after a 48 hr period of exposure to the test compound is “T”, the optical density at time zero is TO and the control optical density is “C.” The “50” is called the GI50PRCNT, a T/C-like parameter that can have values from +100 to −100. The GI50 also measures the growth inhibitory power of the test compound. The TGI is the concentration of test drug where 100×(T−T0)/(C−T0)=0. Thus, the TGI signifies a cytostatic effect. The LC50 which signifies a cytotoxic effect, is the concentration of the test compound where 100×(T−T0)/T0=−50. The control optical density is not used in the calculation of LC50.
These concentration parameters are interpolated values. The concentrations giving G150PRCNT values above and below the reference values (e.g. 50 for G150) are used to make interpolations on the concentration axis. […] For mean graph purposes, the value assumed for the G150 in such a case is the highest concentration tested (HICONC). […] In this case, the lowest concentration tested is used for the G150. Corresponding approximations are made for the TGI and for the LC50.
The results of the tumor cell screening are shown in the mean graphs of 56-62. […]

L1210 = settings: cited from earlier work
[1] = target: T1, Ca2+-ATPase from skeletal sarcoplasmic reticulum (Homo sapiens, UniProt O14983); settings: read-out: inhibition of Ca2+-ATPase from skeletal sarcoplasmic reticulum (IC50); cited from earlier work
T1 construct: from tissue; host or cells: skeletal muscle sarcoplasmic reticulum

[2] = system: Herpes simplex virus, type 1 (HSV-1); settings: at a concentration of 0.2 μg/mL; cited from earlier work
brain Na+, K+-ATPase = settings: read-out: inhibition of brain Na+, K+-ATPase (IC50); cited from earlier work
P388 = settings: cited from earlier work
Candida albicans = settings: cited from earlier work

T1 sequence (O14983 whole entry): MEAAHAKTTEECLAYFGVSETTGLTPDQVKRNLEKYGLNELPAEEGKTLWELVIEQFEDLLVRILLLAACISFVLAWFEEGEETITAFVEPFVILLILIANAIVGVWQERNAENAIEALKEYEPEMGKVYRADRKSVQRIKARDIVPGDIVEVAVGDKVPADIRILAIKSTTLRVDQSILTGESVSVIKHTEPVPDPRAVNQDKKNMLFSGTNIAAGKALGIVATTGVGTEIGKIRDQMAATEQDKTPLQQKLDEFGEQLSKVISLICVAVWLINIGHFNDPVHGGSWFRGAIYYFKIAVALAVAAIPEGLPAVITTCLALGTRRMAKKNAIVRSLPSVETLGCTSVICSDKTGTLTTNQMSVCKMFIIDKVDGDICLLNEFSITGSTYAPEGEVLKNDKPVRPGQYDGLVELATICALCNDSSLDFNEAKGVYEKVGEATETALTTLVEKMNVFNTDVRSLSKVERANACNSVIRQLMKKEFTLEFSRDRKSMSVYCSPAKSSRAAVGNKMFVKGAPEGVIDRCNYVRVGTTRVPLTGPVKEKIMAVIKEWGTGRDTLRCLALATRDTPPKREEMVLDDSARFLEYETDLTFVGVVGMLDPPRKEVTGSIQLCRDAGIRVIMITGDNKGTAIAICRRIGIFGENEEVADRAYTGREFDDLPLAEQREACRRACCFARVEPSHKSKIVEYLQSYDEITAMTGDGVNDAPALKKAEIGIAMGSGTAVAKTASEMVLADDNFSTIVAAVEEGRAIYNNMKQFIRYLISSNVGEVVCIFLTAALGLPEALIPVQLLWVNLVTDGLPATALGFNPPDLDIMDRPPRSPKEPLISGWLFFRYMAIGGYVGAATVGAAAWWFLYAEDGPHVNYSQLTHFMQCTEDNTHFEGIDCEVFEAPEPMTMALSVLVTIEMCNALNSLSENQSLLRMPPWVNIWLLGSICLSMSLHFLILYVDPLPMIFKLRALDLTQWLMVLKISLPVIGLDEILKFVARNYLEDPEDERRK

Row | Molecule | effect on tumor cell lines in the NCI screen (mean graphs of GI50, TGI, LC50; summary in words) (60 tumor cell lines) | also measured
1 | Peracetyl-13,14,15-Isocrambescidin 800 Hydrochloride [triacetylisocrambescidin 800 chloride] | lesser effect | 
2 | CC[C@H]1C=CCC[C@@]2(C[C@@H]3CC[C@@H]4[C@H](C(=O)OCCCCCCCCCCCCCCCC(=O)N(CCCN)C[C@@H](O)CCN)[C@]5(CCC[C@@H](C)O5)NC(=N2)N34)O1.Cl.Cl.Cl [crambescidin 800 trihydrochloride, Crambescidin 800 Trihydrochloride] | certain cancer cell lines are sensitive | 
3 | crambescidin 657 hydrochloride | certain cancer cell lines are sensitive | 
4 | 13,14,15-Isocrambescidin 800 Trihydrochloride | lesser effect | cytotoxicity to L-1210 cells relative to other crambescidins (L1210; L-1210 cells, in words): less cytotoxic to L-1210 cells than other crambescidins
5 | Peracetylcrambescidin 800 [triacetylcrambescidin 800 chloride] | certain cancer cell lines are sensitive | 
6 | 13-epiptilomycalin A | certain cancer cell lines are sensitive | 
7 | CCC1C=CCCC2(CC3CCC4C(C(=O)OCCCCCCCCCCCCCCCC(=O)N(CCCN)CCCCN)C5(CCCC(C)O5)NC(=N2)N34)O1 (centres unmarked) [Ptilomycalin A] | certain cancer cell lines are sensitive | IC50 [1]: 10 µM; antiviral activity against Herpes simplex virus, type 1 (HSV-1) [2]: considerable antiviral activity; IC50 (brain Na+, K+-ATPase): 2 µM; cytotoxicity against P388 (IC50) (P388): 0.1 µg/mL; cytotoxicity against L1210 (IC50) (L1210; L1210): 0.4 µg/mL; antifungal activity against Candida albicans (MIC) (Candida albicans): 0.8 µg/mL

Source: US20050239804A1, “Method for improved chemical synthesis of guanidinium alkaloids” (The Regents of the University of California, priority 1999, published 2005)
